From patent US20240041795A1, “Cyclic Ketone Compounds and Applications Thereof” (priority 2021, published 2024)

What was measured:
[1] = system: male SD rats; test: Antagonism of compounds against general anesthesia maintained by continuous infusion of propofol (anesthesia recovery/awakening time); format: in vivo; settings: for The average of awakening time: SD rats
Method: The preparation method was the same as that of Example 1.
24 male SD rats with a body weight range of 250-300 g were randomly divided into 4 groups, with 6 rats in each group. Continuous anesthesia induction was performed using propofol (22.11 mg/kg, 1.5×EDO, and then maintained at a rate of 1 mg/(kg min) for 30 min. After drug withdrawal, compound 85 at doses of 10 mg/kg, 20 mg/kg, and 50 mg/kg, as well as 50 mg/kg of the test compound solutions (using medium and long chain fat emulsion injection as solvent) or equal volume of medium and long chain fat emulsion injection was immediately injected, respectively, and the anesthesia recovery time of the […] after stopping the medication was observed and recorded. Among them, the anesthesia recovery time refers to the time from the cessation of propofol infusion to the recovery of the righting reflex in mice.

[2] = system: Male ICR mice; test: Antagonism of test compounds against general anesthesia induced by general anesthetics (total anesthesia time, loss to recovery of righting reflex); format: in vivo
Method: The preparation method: A suitable amount of the compound to be tested was weighed, to which was added a suitable amount of medium and long chain fat emulsion injection with a pipette, and thus a 50 mmol/L solution of the test compound was prepared. After filtering with a 0.22 μm microporous membrane, the solution was immediately used.
Male ICR mice weighing 25 g±1 g were randomly divided into 8 groups, with 8 mice in each group. […] After maintaining the disappearance of the mouse righting reflex for 30 seconds, the solution of each test compound (50 mg/kg, using medium and long chain fat emulsion injection as solvent) or equal volume of medium and long chain fat emulsion injection was respectively injected, and the total anesthesia time of the mice was observed and recorded. Among them, the total anesthesia time refers to the time from the disappearance of the mouse righting reflex to the recovery of the mouse righting reflex.

[3] = test drug 50 mg/kg after withdrawal of propofol infusion (1 mg/(kg min) for 30 min)
[4] = Etomidate 4.48 mg/kg (2×ED50) i.v. tail vein induction, test compound 50 mg/kg in fat emulsion injected after 30 s loss of righting reflex
[5] = Ketamine induction (dose not given), test compound 50 mg/kg in fat emulsion
[6] = Propofol 22.11 mg/kg (1.5×ED50) i.v. tail vein induction, test compound 50 mg/kg in fat emulsion injected after 30 s loss of righting reflex
[7] = Remimazolam 57.34 mg/kg (1.5×ED50) i.v. tail vein induction, test compound 50 mg/kg in fat emulsion injected after 30 s loss of righting reflex

| Structure (SMILES) | The average of awakening time [1, 3] [min] | The average of total anesthesia time [2, 4] [min] | The average of total anesthesia time [2, 6] [min] | The average of total anesthesia time [2, 7] [min] | further results |
| --- | --- | --- | --- | --- | --- |
| CC1(C)C2CC(=O)C1(C)C(Br)C2 (stereo not drawn) [Compound 633] | 2.64 ± 0.19 | 0.96 ± 0.92 | 2.04 ± 0.63 |  | The average of total anesthesia time [2, 5]: 3.35 ± 0.90 min |
| CC1(C)C2CCC1(CO)C(=O)C2 (stereo not drawn) [Compound 273] |  |  | 1.43 ± 0.43 |  |  |
| CC12CCC(C(=O)C1=O)C2(C)C (stereo not drawn) [Compound 104] |  |  |  |  | The average of total anesthesia time [2, 5]: 2.67 ± 0.30 min |
| CC12CCC(CC1=O)C2(C)C (stereo not drawn) [Compound 85] | 0.36 ± 0.98 | 0.46 ± 0.25 | 0.47 ± 0.21 | 0.45 ± 0.21 | Reversal of the anesthesia maintenance effect of continuous infusion of propofol ([1]; continuous propofol infusion, 10, 20, 50 mg/kg): could dose-dependently shorten the anesthesia recovery time of rats; The average of awakening time ([1]; test drug 10 mg/kg after withdrawal of propofol infusion (1 mg/(kg min) for 30 min)): 4.11 ± 1.22 min; The average of awakening time ([1]; test drug 20 mg/kg after withdrawal of propofol infusion (1 mg/(kg min) for 30 min)): 3.68 ± 1.12 min; The average of total anesthesia time [2, 5]: 3.01 ± 0.45 min |
| CC12CCC(CC1=O)C2(C)CO (stereo not drawn) [Compound 140] |  | 2.05 ± 0.33 | 4.13 ± 0.20 | 1.16 ± 0.92 |  |
| [2H]C1C(=O)C2(C)CCC1C2(C)C (stereo not drawn) [Compound 664] |  |  |  |  | The average of total anesthesia time [2, 5]: 3.20 ± 0.77 min |
| CC12CC(Br)C(CC1=O)C2(C)C (stereo not drawn) [Compound 608] |  |  | 4.08 ± 0.34 |  |  |
| CCC1(C)C2CCC1(C)C(=O)C2 (stereo not drawn) [Compound 163] | 1.33 ± 0.79 | 2.17 ± 0.60 | 1.51 ± 0.51 | 0.77 ± 0.02 |  |
| CC12CCC(CC(=O)O)(CC1=O)C2(C)C (stereo not drawn) [Compound 572] |  |  |  | 0.85 ± 0.37 |  |
| CC1(C)C2CCC1(CCl)C(=O)C2 (stereo not drawn) [Compound 269] | 3.29 ± 0.81 |  | 2.15 ± 0.98 | 1.39 ± 0.45 |  |
| CC12CCC(CC1=O)C2(C)CO (stereo not drawn) [Compound 157] |  | 2.08 ± 0.32 | 2.52 ± 0.21 |  |  |
| CC12CCC(CC1=O)C2(C)C(Cl)Br (stereo not drawn) [Compound 262] |  |  |  |  | The average of total anesthesia time [2, 5]: 3.92 ± 0.83 min |
| CC12CCC(CC1=O)C2(C)CC(=O)O (stereo not drawn) [Compound 139] |  | 2.64 ± 0.89 |  | 1.29 ± 0.63 |  |
| CC12CCC(C(C(=O)O)C1=O)C2(C)C (stereo not drawn) [Compound 67] | 3.04 ± 0.18 |  | 2.14 ± 0.32 |  |  |
| CC(=O)OC1CC2(C)C(=O)CC1C2(C)C (stereo not drawn) [Compound 626] |  | 2.05 ± 0.54 |  |  |  |
| CC1(C)C2CCC1(CBr)C(=O)C2 (stereo not drawn) [Compound 270] |  | 2.50 ± 0.99 | 2.49 ± 0.15 | 1.01 ± 0.05 |  |
| CC12CC(Cl)C(CC1=O)C2(C)C (stereo not drawn) [Compound 610] | 2.72 ± 0.36 |  |  | 1.32 ± 0.06 |  |
| CC12CCC(CC1=O)C2(C)CI (stereo not drawn) [Compound 135] |  | 1.72 ± 0.50 |  |  |  |
| CC1CC2CC(=O)C1(C)C2(C)C (stereo not drawn) [Compound 661] | 2.39 ± 0.75 |  | 2.89 ± 0.64 | 0.55 ± 0.76 |  |

| Structure (SMILES) | The average of awakening time [1, 3] [min] | The average of total anesthesia time [2, 4] [min] | The average of total anesthesia time [2, 6] [min] | The average of total anesthesia time [2, 7] [min] | further results |
| --- | --- | --- | --- | --- | --- |
| CC1(CBr)C2CCC1(CBr)C(=O)C2Br (stereo not drawn) [Compound 70] |  |  |  |  | The average of total anesthesia time [2, 5]: 3.49 ± 0.40 min |
| CC1C(=O)C2(C)CCC1(C)C2 (stereo not drawn) [Compound 581] | 4.66 ± 0.60 | 1.07 ± 0.32 | 2.22 ± 0.27 | 1.32 ± 0.31 |  |
| CC12CCC(C(Cl)C1=O)C2(C)C (stereo not drawn) [Compound 168] |  |  |  | 0.86 ± 0.42 |  |
| CC1CCC(C(C)C)CC1=O (stereo not drawn) [Compound 582] | 0.96 ± 0.23 | 1.27 ± 0.83 | 1.39 ± 0.08 | 1.49 ± 0.21 |  |
| CC1(C)[C@H]2CC[C@]1(C)C(=O)C2 [Compound 171] | 0.34 ± 0.89 | 1.97 ± 0.07 | 0.42 ± 0.32 | 0.73 ± 0.57 | The average of total anesthesia time [2, 5]: 3.64 ± 0.89 min |
| CC12CCC(CC1=O)C2(C)CBr (stereo not drawn) [Compound 150] |  |  | 1.26 ± 0.17 |  |  |
| CC12CCC(Br)(CC1=O)C2(C)C (stereo not drawn) [Compound 561] |  | 2.03 ± 0.61 |  |  |  |
| CC12CCC(CC1=O)C2(C)CBr (stereo not drawn) [Compound 130] | 3.41 ± 0.52 |  | 1.79 ± 0.09 |  |  |
| CC12CCC(C(I)C1=O)C2(C)C (stereo not drawn) [Compound 87] |  | 1.56 ± 0.45 |  | 0.84 ± 0.78 |  |
| CC12CCC(F)(CC1=O)C2(C)C (stereo not drawn) [Compound 565] | 2.58 ± 0.56 | 0.87 ± 0.93 | 2.40 ± 0.89 |  | The average of total anesthesia time [2, 5]: 3.46 ± 0.15 min |
| CC1(C)C2CC(=O)C1(C)C(Cl)(Br)C2 (stereo not drawn) [Compound 643] | 1.01 ± 0.29 | 2.80 ± 0.67 |  |  |  |
| CC1C(=O)CC2(C(C)C)CC12 (stereo not drawn) [Compound 580] | 2.76 ± 0.20 | 1.36 ± 0.84 | 3.12 ± 0.12 | 0.69 ± 0.25 |  |
| CC1(Br)C(=O)C2(C)CCC1C2(C)C (stereo not drawn) [Compound 120] |  |  |  |  | The average of total anesthesia time [2, 5]: 3.72 ± 0.24 min |
| CC1(C)C2CC(=O)C1(C)C(Cl)C2 (stereo not drawn) [Compound 631] | 2.85 ± 0.58 |  | 3.30 ± 0.79 | 0.70 ± 0.32 |  |
| CSC1C(=O)C2(C)CCC1C2(C)C (stereo not drawn) [Compound 68] |  | 2.11 ± 0.54 | 4.05 ± 0.15 |  |  |
| CC12CC(O)C(CC1=O)C2(C)C (stereo not drawn) [Compound 616] |  | 1.15 ± 0.83 | 2.70 ± 0.63 | 0.94 ± 0.30 |  |
| CC12CCC(C(Br)C1=O)C2(C)C (stereo not drawn) [Compound 86] |  |  | 1.56 ± 0.21 | 1.49 ± 0.62 |  |
| CC12CCC(O)(CC1=O)C2(C)C (stereo not drawn) [Compound 563] |  |  | 2.62 ± 0.18 |  |  |
